Assays:
HSA = target: T1, HSA (Homo sapiens, UniProt P02768); assay: HSA binding on Chiralpak HSA column; type: in vitro ADME; details: human, 0.5 mg/mL
T1 construct: purchased Daicel Chemical Industries / Chiral Technologies Europe (Illkirch, France)
Procedure: HSA binding experiments were performed as previously described. […] For each run, 10 μL of the solution containing the inhibitor was injected into the RP-HPLC system and the retention time measured. […] Non-linear regression was established with OriginPro 2016G.

LNCaP-tumor xenograft = assay: Biodistribution in LNCaP-tumor xenograft bearing CB-17 SCID mice; type: in vivo; details: mouse, in vivo
Procedure: All animal experiments were carried out in accordance with the general animal welfare regulations in Germany (Deutsches Tierschutzgesetz, approval #55.2-1-54-2532-71-13). For the tumor model, LNCaP cells (approx. 10^7 cells) were suspended in serum-free DMEM-F12 medium and Matrigel (1/1; v/v) (BD Biosciences, Germany) and inoculated onto the right shoulder of male, 6 to 8 weeks old CB-17 SCID mice (Charles River Laboratories, Sulzfeld, Germany). Animals were used after the tumor size reached 4 to 8 mm in diameter for experiments.

LNCaP cells = assay: Internalization into LNCaP cells, relative cellular uptake to ([^125I]I-BA)KuE; type: cell-based; details: c = 1.0 nM ^177Lu-labeled inhibitor, 37° C., 60 min, corrected for non-specific binding (10 μM 2-PMPA), mean ± SD (n = 3)
Procedure: PSMA-positive LNCAP cells (300265; Cell Lines Service GmbH) were cultivated in Dulbecco modified Eagle medium/Nutrition Mixture F-12 (1/1) (DMEM-F12, Biochrom) supplemented with fetal calf serum (FCS) (10%, Biochrom) and kept at 37° C. in a humidified CO2 atmosphere (5%). One day (24 h±2 h) prior to all experiments with LNCaP cells, the cultivated cells were harvested using a mixture of trypsin/ethylendiaminetetraacetate (0.05%/0.02%) and PBS and centrifuged. After centrifugation, the supernatant was disposed and the cell pellet resuspended in culture medium. Afterwards, cells were counted with a hemocytometer (Neubauer) and seeded in 24-well plates.
Subsequent to the removal of the culture medium, the cells were washed once with DMEM-F12-solution (500 μL, 5% BSA) and left to equilibrate for at least 15 min at 37° C. in DMEM-F12-solution (200 μL, 5% BSA). Afterwards, each well was treated with either DMEM-F12-solution (25 μL, 5% BSA) or 2-PMPA-solution (25 μL, 100 μm) for blockade. […] The experiment was terminated by placing the 24-well plate on ice for 3 min and the consecutive removal of the medium. Each well was rinsed with HBSS (250 μL) and the fractions from these first two steps combined, representing the amount of free radioligand. Removal of surface bound activity was accomplished by incubation of the cells with ice-cold 2-PMPA-solution (250 μL, 10 μm in PBS) for 5 min and subsequent rinsing with ice-cold PBS (250 μL). The internalized activity was determined through incubation of the cells in NaOH (250 μL, 1.0 m) and the combination with the fraction of the subsequent washing step with again NaOH (250 μL, 1.0 m). Each experiment (control and blockade) was performed in triplicate for each time point. Free, surface bound and internalized activity was quantified in a γ-counter.

[1] = Lipophilicity, logP in n-octanol/PBS of radiolabeled PSMA inhibitors; type: physicochemical; details: pH 7.4
Procedure: The radiolabeled PSMA inhibitor (0.5 to 1.0 MBq) dissolved in PBS (500 μL, pH=7.4), was added to n-octanol (500 μL) in a reaction vial (1.5 mL), which was rigorously vortexed for 3 min (n=6). For quantitative phase separation, the mixture was centrifuged at 6,000 g for 5 min (Biofuge 15, Heraus Sepatech, Osterode, Germany). The activity from samples of each phase (100 μL) were measured in a γ-counter to obtain the log P(o/w) value.

T1 sequence (P02768 25-609): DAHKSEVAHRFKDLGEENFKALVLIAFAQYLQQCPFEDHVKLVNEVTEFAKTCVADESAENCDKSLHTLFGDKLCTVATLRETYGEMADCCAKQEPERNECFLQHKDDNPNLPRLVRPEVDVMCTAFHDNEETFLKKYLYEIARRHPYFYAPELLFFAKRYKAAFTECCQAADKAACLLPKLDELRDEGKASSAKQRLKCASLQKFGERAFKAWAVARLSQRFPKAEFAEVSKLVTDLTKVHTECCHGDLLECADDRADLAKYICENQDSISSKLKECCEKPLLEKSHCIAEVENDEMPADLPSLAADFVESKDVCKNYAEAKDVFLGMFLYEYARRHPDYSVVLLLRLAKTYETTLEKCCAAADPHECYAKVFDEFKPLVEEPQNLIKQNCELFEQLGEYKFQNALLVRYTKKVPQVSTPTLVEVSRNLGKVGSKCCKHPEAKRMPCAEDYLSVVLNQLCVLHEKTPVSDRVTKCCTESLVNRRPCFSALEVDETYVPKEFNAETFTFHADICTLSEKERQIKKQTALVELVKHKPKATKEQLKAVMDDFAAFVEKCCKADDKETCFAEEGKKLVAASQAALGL

Which “HSA (albumin binding)” value (HSA) does the source give for Nc1ccc(C[C@H](NC(=O)CCC(C(=O)O)N2CCN(CC(=O)O)CCN(CC(=O)O)CCN(CC(=O)O)CC2)C(=O)N[C@H](Cc2ccc(O)cc2)C(=O)N[C@H](Cc2ccc3ccccc3c2)C(=O)N[C@H](CCCCNC(=O)[C@@H](CC(=O)NCCC[C@@H](NC(=O)CC[C@H](NC(=O)N[C@@H](CCC(=O)O)C(=O)O)C(=O)O)C(=O)O)NC(=O)c2cc(C(=O)O)cc(C(=O)O)c2)C(=O)O)cc1 (stereo partly shown) [PSMA-62, DOTAGA-F(4-NH2)y-2-nal-k(d[N^5-orn-C^4-EuE]-TMA)] here?
Its value is >91.0%.

And the adrenal gland (LNCaP-tumor xenograft; male, CB-17 SCID, 1 h)?
Its adrenal gland is 1.92 ± 0.80 % ID/g.

And the blood (LNCaP-tumor xenograft; male, CB-17 SCID, 1 h)?
The blood was 0.52 ± 0.03 % ID/g.

What about the bone (LNCaP-tumor xenograft; male, CB-17 SCID, 1 h) of the same compound?
Its bone is 0.30 ± 0.08 % ID/g.

What about the brain (LNCaP-tumor xenograft; male, CB-17 SCID, 1 h) of the same compound?
The brain was 0.03 ± 0.01 % ID/g.

And the heart (LNCaP-tumor xenograft; male, CB-17 SCID, 1 h)?
Its heart is 0.58 ± 0.06 % ID/g.

What about the intestine (LNCaP-tumor xenograft; male, CB-17 SCID, 1 h) of the same compound?
The intestine was 0.49 ± 0.25 % ID/g.

And the liver (LNCaP-tumor xenograft; male, CB-17 SCID, 1 h)?
Its liver is 0.37 ± 0.04 % ID/g.

What about the lung (LNCaP-tumor xenograft; male, CB-17 SCID, 1 h) of the same compound?
The lung was 0.87 ± 0.11 % ID/g.

What about the muscle (LNCaP-tumor xenograft; male, CB-17 SCID, 1 h) of the same compound?
Its muscle is 0.12 ± 0.03 % ID/g.

What about the pancreas (LNCaP-tumor xenograft; male, CB-17 SCID, 1 h) of the same compound?
The pancreas was 0.18 ± 0.05 % ID/g.

What about the spleen (LNCaP-tumor xenograft; male, CB-17 SCID, 1 h) of the same compound?
The spleen was 4.62 ± 1.81 % ID/g.

What about the stomach (LNCaP-tumor xenograft; male, CB-17 SCID, 1 h) of the same compound?
The stomach was 0.51 ± 0.2 % ID/g.

What about the tumor (LNCaP-tumor xenograft; male, CB-17 SCID, 1 h) of the same compound?
The tumor was 8.00 ± 0.78 % ID/g.

And the tumor/blood (LNCaP-tumor xenograft; male, CB-17 SCID, 1 h)?
The tumor/blood was 15.4.

And the tumor/kidney (LNCaP-tumor xenograft; male, CB-17 SCID, 1 h)?
Its tumor/kidney is 0.08.

And the tumor/muscle (LNCaP-tumor xenograft; male, CB-17 SCID, 1 h)?
Its tumor/muscle is 66.7.

And the adrenal g. (LNCaP-tumor xenograft; male, CB-17 SCID, 24 h)?
Its adrenal g. is 0.04 ± 0.02 % ID/g.

What about the blood (LNCaP-tumor xenograft; male, CB-17 SCID, 24 h) of the same compound?
The blood was 0.004 ± 0.001 % ID/g.

And the bone (LNCaP-tumor xenograft; male, CB-17 SCID, 24 h)?
Its bone is 0.04 ± 0.006 % ID/g.

What about the brain (LNCaP-tumor xenograft; male, CB-17 SCID, 24 h) of the same compound?
Its brain is 0.01 ± 0.006 % ID/g.

And the heart (LNCaP-tumor xenograft; male, CB-17 SCID, 24 h)?
Its heart is 0.02 ± 0.01 % ID/g.

And the intestine (LNCaP-tumor xenograft; male, CB-17 SCID, 24 h)?
The intestine was 0.03 ± 0.02 % ID/g.

And the liver (LNCaP-tumor xenograft; male, CB-17 SCID, 24 h)?
Its liver is 0.17 ± 0.07 % ID/g.

And the lung (LNCaP-tumor xenograft; male, CB-17 SCID, 24 h)?
Its lung is 0.03 ± 0.02 % ID/g.

What about the muscle (LNCaP-tumor xenograft; male, CB-17 SCID, 24 h) of the same compound?
Its muscle is 0.007 ± 0.001 % ID/g.

And the pancreas (LNCaP-tumor xenograft; male, CB-17 SCID, 24 h)?
The pancreas was 0.01 ± 0.002 % ID/g.

And the spleen (LNCaP-tumor xenograft; male, CB-17 SCID, 24 h)?
Its spleen is 0.09 ± 0.06 % ID/g.

What about the stomach (LNCaP-tumor xenograft; male, CB-17 SCID, 24 h) of the same compound?
The stomach was 0.03 ± 0.01 % ID/g.

And the t/blood (LNCaP-tumor xenograft; male, CB-17 SCID, 24 h)?
Its t/blood is 1925.0.

And the t/kidney (LNCaP-tumor xenograft; male, CB-17 SCID, 24 h)?
Its t/kidney is 1.5.

What about the t/liver (LNCaP-tumor xenograft; male, CB-17 SCID, 24 h) of the same compound?
The t/liver was 45.3.

What about the t/muscle (LNCaP-tumor xenograft; male, CB-17 SCID, 24 h) of the same compound?
Its t/muscle is 1100.0.

And the tumor (LNCaP-tumor xenograft; male, CB-17 SCID, 24 h)?
Its tumor is 7.70 ± 1.35 % ID/g.

What about the Internalization (LNCaP cells; listed as [^177Lu]PSMA-62) of the same compound?
The Internalization was 343.9%.

What about the Internalization (LNCaP cells; listed as [^nat/177Lu]PSMA-62) of the same compound?
The Internalization was 343.9 ± 6.0%.

And the logP [1]?
The logP was -4.12 ± 0.05.

Which “HSA (albumin binding)” value (HSA) does the source give for O=C(O)CC[C@H](NC(=O)N[C@@H](CCC(=O)NC(CCCNC(=O)C[C@@H](NC(=O)c1cc(C(=O)O)cc(C(=O)O)c1)C(=O)NCCCC[C@@H](NC(=O)[C@@H](Cc1ccc2ccccc2c1)NC(=O)[C@@H](Cc1ccc(O)cc1)NC(=O)[C@H](Cc1ccc2ccccc2c1)NC(=O)CCC(C(=O)O)N1CCN(CC(=O)O)CCN(CC(=O)O)CCN(CC(=O)O)CC1)C(=O)O)C(=O)O)C(=O)O)C(=O)O (stereo partly shown) [PSMA-71, DOTAGA-2-Nal-y-2-nal-k(d[N^5-orn-C^4-EuE]-TMA)] here?
The value was 98.2%.

What about the adrenal g. (LNCaP-tumor xenograft; male, CB-17 SCID, 24 h) of the same compound?
The adrenal g. was 0.32 ± 0.15 % ID/g.

What about the blood (LNCaP-tumor xenograft; male, CB-17 SCID, 24 h) of the same compound?
The blood was 0.008 ± 0.001 % ID/g.

And the bone (LNCaP-tumor xenograft; male, CB-17 SCID, 24 h)?
Its bone is 0.04 ± 0.02 % ID/g.

And the brain (LNCaP-tumor xenograft; male, CB-17 SCID, 24 h)?
The brain was 0.01 ± 0.002 % ID/g.

And the heart (LNCaP-tumor xenograft; male, CB-17 SCID, 24 h)?
Its heart is 0.07 ± 0.01 % ID/g.

And the intestine (LNCaP-tumor xenograft; male, CB-17 SCID, 24 h)?
The intestine was 0.27 ± 015 % ID/g.

What about the liver (LNCaP-tumor xenograft; male, CB-17 SCID, 24 h) of the same compound?
The liver was 0.38 ± 0.14 % ID/g.

What about the lung (LNCaP-tumor xenograft; male, CB-17 SCID, 24 h) of the same compound?
Its lung is 0.05 ± 0.01 % ID/g.

What about the muscle (LNCaP-tumor xenograft; male, CB-17 SCID, 24 h) of the same compound?
The muscle was 0.01 ± 0.001 % ID/g.

What about the pancreas (LNCaP-tumor xenograft; male, CB-17 SCID, 24 h) of the same compound?
Its pancreas is 0.15 ± 0.15 % ID/g.

What about the spleen (LNCaP-tumor xenograft; male, CB-17 SCID, 24 h) of the same compound?
The spleen was 0.27 ± 0.15 % ID/g.

What about the stomach (LNCaP-tumor xenograft; male, CB-17 SCID, 24 h) of the same compound?
Its stomach is 0.20 ± 0.10 % ID/g.

And the t/blood (LNCaP-tumor xenograft; male, CB-17 SCID, 24 h)?
The t/blood was 1786.3.

What about the t/kidney (LNCaP-tumor xenograft; male, CB-17 SCID, 24 h) of the same compound?
The t/kidney was 0.4.

What about the t/liver (LNCaP-tumor xenograft; male, CB-17 SCID, 24 h) of the same compound?
Its t/liver is 37.6.

What about the t/muscle (LNCaP-tumor xenograft; male, CB-17 SCID, 24 h) of the same compound?
The t/muscle was 1429.0.

And the tumor (LNCaP-tumor xenograft)?
The tumor was “highest tumor uptake”.

What about the Internalization (LNCaP cells; listed as [^177Lu]PSMA-71) of the same compound?
The Internalization was 206.8±1.7%.

What about the Internalization (LNCaP cells; listed as [^nat/177Lu]PSMA-71) of the same compound?
The Internalization was 206.8 ± 1.7%.

What about the logP [1] of the same compound?
Its logP is -4.13 ± 0.09.

Reference: patent US11497819B2, “PSMA ligands for imaging and endoradiotherapy” (priority 2017, dated 2022)
